A short description of experiment [1]: NIH-3T3 fibroblast cytotoxicity, dose response, cytotoxicity control, cell-based, fluorescence, Alamar Blue, secondary assay (AID 2327).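 Further: NIH-3T3 mouse fibroblasts cultured with fluconazole at 8 µg/mL.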 The experiment is classed as functional. A general note: The colour change of resazurin is a common sign of viable cells or microbes.
A short description of experiment [2]: inhibitors of firefly luciferase expression or activity, dose response, H4 neuroglioma cells, luminescence (AID 1990). The experiment is classed as functional, cell-based.
Experiment [3] can be described thus: insulin promoter down-regulators in MIN6 cells, imaging, high-content screening, mouse beta cells (AID 1628). The experiment is classed as functional.
Experiment [4] concerns BJ. Nature of the experiment: cytotoxicity toward BJ-TERT fibroblasts, dose response, cell-based, RAS-independent, luminescence (AID 1933). The experiment is classed as functional. The following applies: Homo sapiens.
The nature of experiment [5]: Luminescence Cell-Based Dose Response HTS to Identify Inhibitors of 5'UTR Stem-Loop Driven Prion Protein mRNA Translation in H4 Neuroglioblastoma Cells. [Related pubchem assays: 1827 (Project Summary), 1813 (Primary HTS)]. The experiment is classed as functional.
Experiment [6] can be described thus: cytotoxicity in MIN6 insulinoma cells, dose response, cytotoxicity control, cell-based, mouse insulinoma (AID 2122).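 Further: confirmatory high-throughput counterscreen run to flag cytotoxic compounds; mouse MIN-6 beta cells carrying an insulin promoter eGFP reporter.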 The experiment is classed as functional.
The nature of experiment [7]: inhibitors of SNCA 5'UTR-driven reporter translation, confirmation, H4 neuroglioma cells, luminescence (AID 1988). The experiment is classed as functional, cell-based.
In experiment [8] the test system is BJ. Nature of the experiment: cells. The experiment is classed as functional, cell-based. The following applies: Homo sapiens.
Experiment [9] is described as follows: C. albicans growth with fluconazole, confirmation, fluorescence, retest (AID 2467). The experiment is classed as functional, cell-based.
Experiment [10] in a line: cytotoxicity in HPDE-C7 cells, cell-based, fluorescence, HTS (AID 430). The experiment is classed as functional. As to conditions: Homo sapiens.
The nature of experiment [11]: Luminescence-based dose response cell-based high throughput screening assay for cytotoxic compounds using the IEC-6 intestinal epithelial cell line. [Related pubchem assays: 1858 (Summary AID.), 1825 (Counterscreen.), 1907 (Confirmation screen.)]. The experiment is classed as functional.
The nature of experiment [12]: cytotoxicity in KRAS-transformed pancreatic duct cells, primary screen, cell-based, fluorescence, HTS (AID 431). The experiment is classed as functional. The following applies: Homo sapiens.
In experiment [13] the test system is BJ. Nature of the experiment: cytotoxicity toward BJ-TERT-LT-ST fibroblasts, dose response, cell-based, RAS-independent, luminescence (AID 1935).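 Further: BJ fibroblasts immortalized with TERT plus LT and ST oncogenes.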 The experiment is classed as functional. The following applies: Homo sapiens.
A short description of experiment [14]: cytotoxicity toward DRD oncogenic fibroblasts, dose response, cell-based, non-viral oncogenic, luminescence (AID 1934). The experiment is classed as functional. As to conditions: Homo sapiens.
Experiment [15] deals with Intestinal-type alkaline phosphatase (Mus musculus, UniProt P24822). Nature of the experiment: PubChem AID 488874. The experiment is classed as functional.
Intestinal-type alkaline phosphatase (Mus musculus, UniProt P24822), sequence (P24822 whole entry): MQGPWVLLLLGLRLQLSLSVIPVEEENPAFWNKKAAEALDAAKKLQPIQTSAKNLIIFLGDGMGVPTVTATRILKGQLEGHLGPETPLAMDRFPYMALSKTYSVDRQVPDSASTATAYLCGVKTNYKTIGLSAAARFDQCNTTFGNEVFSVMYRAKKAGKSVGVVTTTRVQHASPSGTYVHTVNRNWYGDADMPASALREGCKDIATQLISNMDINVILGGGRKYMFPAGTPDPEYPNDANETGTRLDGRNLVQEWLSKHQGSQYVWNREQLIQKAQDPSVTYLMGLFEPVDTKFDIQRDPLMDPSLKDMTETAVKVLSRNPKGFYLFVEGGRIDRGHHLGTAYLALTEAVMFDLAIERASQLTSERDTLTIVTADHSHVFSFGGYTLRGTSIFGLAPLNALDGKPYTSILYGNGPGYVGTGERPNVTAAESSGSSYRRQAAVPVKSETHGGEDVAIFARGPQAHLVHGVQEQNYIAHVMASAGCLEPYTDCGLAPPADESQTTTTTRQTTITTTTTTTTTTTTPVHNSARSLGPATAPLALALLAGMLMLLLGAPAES
Experiment [16] is described as follows: THP-1 cell cytotoxicity, dose response, cytotoxicity control for non-replicating M. tuberculosis project (AID 489025). The experiment is classed as functional.
Experiment [17] in a line: HepG2 cell cytotoxicity, dose response, cytotoxicity control for non-replicating M. tuberculosis project (AID 489018). The experiment is classed as functional. The following applies: Mycobacterium tuberculosis.
Experiment [18] deals with T1, Intestinal-type alkaline phosphatase (Homo sapiens, UniProt P09923). As to the kind of experiment: human intestinal alkaline phosphatase activators, dose response, biochemical, luminescence, uHTS hits (AID 463120). The experiment is classed as functional.
T1 sequence (P09923 whole entry): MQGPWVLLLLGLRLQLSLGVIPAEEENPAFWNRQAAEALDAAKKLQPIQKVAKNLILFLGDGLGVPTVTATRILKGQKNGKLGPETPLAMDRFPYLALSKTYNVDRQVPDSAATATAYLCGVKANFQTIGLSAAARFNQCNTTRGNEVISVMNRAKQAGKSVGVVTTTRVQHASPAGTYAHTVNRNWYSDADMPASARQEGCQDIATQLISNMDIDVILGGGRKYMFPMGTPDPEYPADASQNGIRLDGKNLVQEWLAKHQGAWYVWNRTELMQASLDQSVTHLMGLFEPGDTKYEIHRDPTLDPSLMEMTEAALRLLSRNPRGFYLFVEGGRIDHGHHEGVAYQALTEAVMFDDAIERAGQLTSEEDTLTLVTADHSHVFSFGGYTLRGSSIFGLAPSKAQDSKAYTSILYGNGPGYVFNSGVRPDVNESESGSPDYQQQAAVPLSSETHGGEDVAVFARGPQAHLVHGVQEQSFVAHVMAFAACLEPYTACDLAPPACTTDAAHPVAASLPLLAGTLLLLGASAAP
The nature of experiment [19]: Vero E6 cell cytotoxicity, dose response, cytotoxicity control for non-replicating M. tuberculosis project, secondary assay (AID 492998). The following applies: Vero C1008. The experiment is classed as functional, VeroE6.
Experiment [20] can be described thus: cytotoxicity in HEK-293T cells, dose response, cytotoxicity control for TCR NF-kB inhibitor project, luminescence, T-cell screen hits (AID 489026).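 Further: cells exposed to compound about 14 hours before the viability readout.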 The experiment is classed as functional, cell-based.
The next experiment has as its target Nonstructural protein 1 (Influenza A virus, UniProt Q194T2). The experiment is classed as functional, Influenza A virus (A/California/07/2009(H1N1)).
Experiment [21] deals with T1, Intestinal-type alkaline phosphatase. As to the kind of experiment: human IAP activators, dose response, biochemical, luminescent, uHTS hits, set 2 (AID 488817).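 Further: potency of activators that raise enzyme activity.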 The experiment is classed as functional.
For experiment [22], the target named is T2, Alkaline phosphatase, tissue-nonspecific isozyme (Homo sapiens, UniProt P05186).
T2 sequence (P05186 whole entry): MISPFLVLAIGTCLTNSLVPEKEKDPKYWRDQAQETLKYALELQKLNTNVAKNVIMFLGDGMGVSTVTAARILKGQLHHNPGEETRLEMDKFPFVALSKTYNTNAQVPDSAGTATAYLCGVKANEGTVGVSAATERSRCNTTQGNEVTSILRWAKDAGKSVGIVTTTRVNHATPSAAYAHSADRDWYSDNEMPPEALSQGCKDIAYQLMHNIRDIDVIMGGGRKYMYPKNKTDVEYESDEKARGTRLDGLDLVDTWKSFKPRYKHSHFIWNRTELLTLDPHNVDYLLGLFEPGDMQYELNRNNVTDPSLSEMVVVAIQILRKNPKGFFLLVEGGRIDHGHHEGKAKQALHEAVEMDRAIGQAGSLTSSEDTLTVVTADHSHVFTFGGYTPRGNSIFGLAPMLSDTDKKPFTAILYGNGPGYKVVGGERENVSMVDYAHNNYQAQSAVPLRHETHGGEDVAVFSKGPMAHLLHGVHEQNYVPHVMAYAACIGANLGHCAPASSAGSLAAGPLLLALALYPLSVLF
As to the kind of experiment: TNAP enzyme activators, dose response, selectivity assay for human IAP activator project, biochemical, TNAP isozyme, human IAP uHTS hits (AID 488886).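 Further: potency of compounds raising TNAP activity as a selectivity check on IAP activators.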 The experiment is classed as functional.

The nature of a further experiment: cells. The experiment is classed as functional.
In another experiment the test system is HEK293. Nature of the experiment: inhibitors of LMP1-driven NF-kB reporter, dose response, cell-based, HEK293, luciferase, cherry-pick (AID 588343). The experiment is classed as functional. The following applies: Homo sapiens.
The target of experiment [23] is Heat shock protein HSP 90-alpha (Homo sapiens, UniProt P07900). The experiment is classed as functional, organism-based.
A further experiment relates to INS1. Nature of the experiment: beta cell apoptosis inhibitors, cytokine rescue, dose response, luminescence, retest (AID 449756).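 Further: cell death triggered by IL-1 beta plus TNF-alpha plus IFN-gamma mixture; protective hits raise ATP signal compared with cytokine alone wells.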 The experiment is classed as functional, cell-based. As to conditions: Rattus norvegicus.
The target in another experiment is Keap1/Nrf2 (Homo sapiens, UniProt Q14145). Nature of the experiment: Keap1-Nrf2 protein-protein interaction inhibitors, dose response, biochemical, fluorescence polarization, cherry-picked samples (AID 588683). Background: Polarisation of emitted light reports the rotation of a fluorescent probe.
Keap1/Nrf2, sequence (Q16236 whole entry): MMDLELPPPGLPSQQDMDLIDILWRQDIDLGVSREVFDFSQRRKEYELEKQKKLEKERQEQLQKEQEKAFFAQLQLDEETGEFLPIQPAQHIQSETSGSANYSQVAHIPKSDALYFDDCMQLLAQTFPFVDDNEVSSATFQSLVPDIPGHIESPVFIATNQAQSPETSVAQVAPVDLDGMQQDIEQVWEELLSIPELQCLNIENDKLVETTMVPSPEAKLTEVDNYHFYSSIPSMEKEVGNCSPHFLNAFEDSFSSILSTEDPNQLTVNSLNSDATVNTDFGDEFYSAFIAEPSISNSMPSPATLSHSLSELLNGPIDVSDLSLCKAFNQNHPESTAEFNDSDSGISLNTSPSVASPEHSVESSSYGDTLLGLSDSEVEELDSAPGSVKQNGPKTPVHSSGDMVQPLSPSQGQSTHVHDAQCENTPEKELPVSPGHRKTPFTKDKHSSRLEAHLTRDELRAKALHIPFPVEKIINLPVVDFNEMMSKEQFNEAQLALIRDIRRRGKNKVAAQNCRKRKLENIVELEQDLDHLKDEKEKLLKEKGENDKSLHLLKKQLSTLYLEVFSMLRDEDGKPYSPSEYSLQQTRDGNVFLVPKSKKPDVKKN
Keap1/Nrf2, sequence (Q14145 whole entry): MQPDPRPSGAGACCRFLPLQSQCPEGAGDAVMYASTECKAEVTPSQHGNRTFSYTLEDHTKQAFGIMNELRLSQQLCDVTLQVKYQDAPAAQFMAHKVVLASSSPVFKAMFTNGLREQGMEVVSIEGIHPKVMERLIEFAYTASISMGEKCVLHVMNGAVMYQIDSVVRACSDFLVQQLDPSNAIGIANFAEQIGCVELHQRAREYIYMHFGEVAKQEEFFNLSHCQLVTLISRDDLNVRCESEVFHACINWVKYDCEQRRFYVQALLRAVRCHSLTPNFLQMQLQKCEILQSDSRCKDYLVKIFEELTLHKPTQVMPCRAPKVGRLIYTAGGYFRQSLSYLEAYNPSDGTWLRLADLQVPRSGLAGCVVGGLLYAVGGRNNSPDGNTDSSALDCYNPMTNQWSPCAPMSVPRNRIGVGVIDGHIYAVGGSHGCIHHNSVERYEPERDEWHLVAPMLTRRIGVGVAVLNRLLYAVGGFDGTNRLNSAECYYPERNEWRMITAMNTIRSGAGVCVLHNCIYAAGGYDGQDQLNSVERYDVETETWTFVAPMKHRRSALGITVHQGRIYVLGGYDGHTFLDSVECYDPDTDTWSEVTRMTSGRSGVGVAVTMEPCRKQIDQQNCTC
Experiment [24] deals with Photoreceptor-specific nuclear receptor (Homo sapiens, UniProt Q9Y5X4). The experiment is classed as functional, cell-based.
Photoreceptor-specific nuclear receptor, sequence (Q9Y5X4 whole entry): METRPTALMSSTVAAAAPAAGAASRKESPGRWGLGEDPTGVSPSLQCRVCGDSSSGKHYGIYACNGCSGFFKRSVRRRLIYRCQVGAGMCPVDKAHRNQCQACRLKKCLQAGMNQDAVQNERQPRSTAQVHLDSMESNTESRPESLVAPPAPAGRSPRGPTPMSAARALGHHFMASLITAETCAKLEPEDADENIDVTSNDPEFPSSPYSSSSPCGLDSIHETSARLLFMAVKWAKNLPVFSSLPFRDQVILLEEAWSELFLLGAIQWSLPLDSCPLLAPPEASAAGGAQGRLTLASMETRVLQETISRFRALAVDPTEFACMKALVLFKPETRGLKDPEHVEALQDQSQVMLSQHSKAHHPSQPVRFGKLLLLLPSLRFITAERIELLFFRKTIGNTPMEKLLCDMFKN
Another experiment concerns the target Protein S100-A4 (Homo sapiens, UniProt P26447). As to the kind of experiment: S100A4-myosin IIA binding inhibitor potency, dose response, biochemical, fluorescence polarization, cherry-picked hits (AID 687001). The experiment is classed as functional.
For the next experiment, the target named is Paired box protein Pax-8 (Homo sapiens, UniProt Q06710). Nature of the experiment: inhibitors of PAX8-driven TPO luciferase reporter, dose response, RMG-I cells, cherry-pick (AID 687027).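 Further: luciferase reporter driven by Pax8 target thyroperoxidase promoter measured by SteadyGlo luminescence.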 The experiment is classed as functional, cell-based.
Paired box protein Pax-8, sequence (Q06710 whole entry): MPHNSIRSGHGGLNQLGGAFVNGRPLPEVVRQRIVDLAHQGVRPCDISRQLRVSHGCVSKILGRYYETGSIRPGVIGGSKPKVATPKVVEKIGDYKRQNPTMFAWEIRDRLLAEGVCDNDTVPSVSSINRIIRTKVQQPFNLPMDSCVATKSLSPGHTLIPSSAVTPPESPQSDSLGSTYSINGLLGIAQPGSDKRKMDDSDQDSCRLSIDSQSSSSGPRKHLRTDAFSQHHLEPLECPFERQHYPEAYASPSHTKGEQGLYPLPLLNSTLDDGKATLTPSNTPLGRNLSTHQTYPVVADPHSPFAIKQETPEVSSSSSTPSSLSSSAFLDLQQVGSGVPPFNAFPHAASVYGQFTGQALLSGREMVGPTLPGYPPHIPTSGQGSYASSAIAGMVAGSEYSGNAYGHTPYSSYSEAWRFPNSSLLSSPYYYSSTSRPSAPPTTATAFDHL
The target of a further experiment is T3, Hexokinase HKDC1 (Homo sapiens, UniProt Q2TB90).
T3 sequence (Q2TB90 whole entry): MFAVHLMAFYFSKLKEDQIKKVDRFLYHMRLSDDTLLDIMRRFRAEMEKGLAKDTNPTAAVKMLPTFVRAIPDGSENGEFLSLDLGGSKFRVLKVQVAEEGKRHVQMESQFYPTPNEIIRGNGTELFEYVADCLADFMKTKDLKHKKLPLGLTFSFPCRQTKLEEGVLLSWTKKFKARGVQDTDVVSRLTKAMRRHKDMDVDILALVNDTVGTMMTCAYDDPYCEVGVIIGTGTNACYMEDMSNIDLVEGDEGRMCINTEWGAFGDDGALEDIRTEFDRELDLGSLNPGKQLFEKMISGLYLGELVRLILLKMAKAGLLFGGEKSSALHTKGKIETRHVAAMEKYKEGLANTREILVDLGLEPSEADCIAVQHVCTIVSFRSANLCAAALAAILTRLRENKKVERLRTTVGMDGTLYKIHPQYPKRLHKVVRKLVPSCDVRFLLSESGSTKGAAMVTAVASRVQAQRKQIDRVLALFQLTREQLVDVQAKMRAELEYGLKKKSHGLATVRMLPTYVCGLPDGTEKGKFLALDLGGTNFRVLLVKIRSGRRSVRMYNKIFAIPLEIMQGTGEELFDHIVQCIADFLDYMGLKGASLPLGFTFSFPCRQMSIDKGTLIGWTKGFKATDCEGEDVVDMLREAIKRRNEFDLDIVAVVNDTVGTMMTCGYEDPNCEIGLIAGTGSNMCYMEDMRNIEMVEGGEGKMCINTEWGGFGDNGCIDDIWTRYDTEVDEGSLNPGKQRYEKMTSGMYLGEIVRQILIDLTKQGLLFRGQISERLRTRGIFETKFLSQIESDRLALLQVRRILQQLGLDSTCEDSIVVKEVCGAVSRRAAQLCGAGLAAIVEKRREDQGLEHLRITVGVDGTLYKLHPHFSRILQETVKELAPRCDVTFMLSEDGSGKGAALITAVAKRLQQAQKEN
Nature of the experiment: HKDC1 hexokinase activators, dose response, biochemical, W721R variant (AID 504730). The experiment is classed as functional.

The target in the next experiment is T4, Hexokinase-1 (Homo sapiens, UniProt P19367).
T4 sequence (P19367 whole entry): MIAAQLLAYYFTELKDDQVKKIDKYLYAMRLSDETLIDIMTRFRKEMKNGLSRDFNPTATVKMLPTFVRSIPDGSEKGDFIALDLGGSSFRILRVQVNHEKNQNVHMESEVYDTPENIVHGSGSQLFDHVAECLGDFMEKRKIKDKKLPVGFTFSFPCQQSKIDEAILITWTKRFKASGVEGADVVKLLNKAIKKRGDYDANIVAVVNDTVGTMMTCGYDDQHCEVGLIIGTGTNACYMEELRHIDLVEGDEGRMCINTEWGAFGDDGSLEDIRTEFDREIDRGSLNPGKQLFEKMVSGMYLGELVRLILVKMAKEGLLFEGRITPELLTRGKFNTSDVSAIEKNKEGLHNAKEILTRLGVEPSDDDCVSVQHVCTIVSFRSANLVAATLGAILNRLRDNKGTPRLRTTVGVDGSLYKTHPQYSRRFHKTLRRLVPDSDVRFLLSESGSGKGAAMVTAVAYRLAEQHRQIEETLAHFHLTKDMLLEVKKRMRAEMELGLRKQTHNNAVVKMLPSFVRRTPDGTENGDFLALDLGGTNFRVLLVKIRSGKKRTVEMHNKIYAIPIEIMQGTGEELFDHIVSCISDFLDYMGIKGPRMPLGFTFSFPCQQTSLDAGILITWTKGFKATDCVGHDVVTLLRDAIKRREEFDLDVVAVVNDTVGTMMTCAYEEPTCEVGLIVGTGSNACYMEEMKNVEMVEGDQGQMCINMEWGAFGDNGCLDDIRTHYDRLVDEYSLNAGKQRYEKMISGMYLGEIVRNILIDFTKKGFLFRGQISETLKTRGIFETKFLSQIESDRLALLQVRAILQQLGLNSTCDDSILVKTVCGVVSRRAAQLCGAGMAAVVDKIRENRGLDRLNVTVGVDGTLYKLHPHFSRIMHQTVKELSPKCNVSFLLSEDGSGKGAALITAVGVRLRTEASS
Nature of the experiment: hexokinase 1 activators, dose response, selectivity assay for HKDC1 activator project, biochemical (AID 504762). The experiment is classed as functional.

For experiment [25], the target named is Histone-lysine N-methyltransferase NSD2 (Homo sapiens, UniProt O96028). The experiment is classed as biochemical.
Histone-lysine N-methyltransferase NSD2, sequence (O96028 whole entry): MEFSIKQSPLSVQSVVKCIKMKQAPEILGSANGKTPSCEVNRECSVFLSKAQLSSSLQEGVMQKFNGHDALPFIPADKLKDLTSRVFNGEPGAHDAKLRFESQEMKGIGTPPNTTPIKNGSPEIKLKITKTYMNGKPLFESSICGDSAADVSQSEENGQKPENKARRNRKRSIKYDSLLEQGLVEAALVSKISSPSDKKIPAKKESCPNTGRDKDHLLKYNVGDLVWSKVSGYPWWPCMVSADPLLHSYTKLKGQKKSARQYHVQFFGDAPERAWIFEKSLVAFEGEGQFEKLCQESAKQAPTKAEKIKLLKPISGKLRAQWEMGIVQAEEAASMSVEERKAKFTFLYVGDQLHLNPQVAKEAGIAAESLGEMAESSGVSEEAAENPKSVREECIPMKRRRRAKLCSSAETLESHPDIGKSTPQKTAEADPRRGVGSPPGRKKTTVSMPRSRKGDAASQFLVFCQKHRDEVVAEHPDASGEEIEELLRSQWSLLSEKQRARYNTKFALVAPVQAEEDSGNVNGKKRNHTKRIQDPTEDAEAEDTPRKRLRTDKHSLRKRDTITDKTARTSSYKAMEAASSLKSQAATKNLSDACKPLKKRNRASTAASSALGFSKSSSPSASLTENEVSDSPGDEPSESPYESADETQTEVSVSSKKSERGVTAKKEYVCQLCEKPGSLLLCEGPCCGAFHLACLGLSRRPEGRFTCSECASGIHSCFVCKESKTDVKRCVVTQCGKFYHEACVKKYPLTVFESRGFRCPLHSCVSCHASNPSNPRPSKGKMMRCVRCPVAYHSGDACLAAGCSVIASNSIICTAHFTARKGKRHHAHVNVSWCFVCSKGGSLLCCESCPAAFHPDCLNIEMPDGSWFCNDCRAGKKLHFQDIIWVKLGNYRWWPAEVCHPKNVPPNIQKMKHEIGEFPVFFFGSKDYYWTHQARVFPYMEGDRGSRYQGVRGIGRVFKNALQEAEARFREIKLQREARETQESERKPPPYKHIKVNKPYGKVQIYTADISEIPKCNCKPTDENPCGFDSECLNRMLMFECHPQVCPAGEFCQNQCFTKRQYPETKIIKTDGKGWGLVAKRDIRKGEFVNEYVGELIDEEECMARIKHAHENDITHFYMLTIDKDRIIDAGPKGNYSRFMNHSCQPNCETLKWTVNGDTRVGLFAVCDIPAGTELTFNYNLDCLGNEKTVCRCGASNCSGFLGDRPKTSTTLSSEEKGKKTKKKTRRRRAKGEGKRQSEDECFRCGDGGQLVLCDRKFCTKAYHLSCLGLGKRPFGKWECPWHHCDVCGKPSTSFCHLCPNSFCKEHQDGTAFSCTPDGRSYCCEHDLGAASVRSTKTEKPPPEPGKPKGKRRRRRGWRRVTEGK

Activity calls are given as the source filed them. Some results are limits rather than exact numbers.

Protein S100-A4, sequence (P26447 whole entry): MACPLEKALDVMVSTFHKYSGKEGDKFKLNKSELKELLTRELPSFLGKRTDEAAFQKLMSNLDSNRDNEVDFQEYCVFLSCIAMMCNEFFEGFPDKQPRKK
Nonstructural protein 1, sequence (Q194T2 whole entry): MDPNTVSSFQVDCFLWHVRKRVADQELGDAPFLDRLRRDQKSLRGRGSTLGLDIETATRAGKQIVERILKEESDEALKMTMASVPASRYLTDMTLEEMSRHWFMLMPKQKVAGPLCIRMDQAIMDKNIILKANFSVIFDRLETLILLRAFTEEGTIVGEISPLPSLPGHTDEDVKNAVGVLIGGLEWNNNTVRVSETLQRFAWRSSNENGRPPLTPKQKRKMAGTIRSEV

As for `c1ccc(-c2cccc(-c3ccccn3)n2)nc1` [TERPYRIDINE], the EC50 (as a rule, the concentration needed to bring the measured effect to its halfway point) in [1] is 1320 nM (active); in [2], < 100 nM (active); in the experiment on BJ [4] it was 11200 nM (active); in experiment [5], < 100 nM (active); in experiment [7], < 100 nM (active); in the experiment on BJ [8], 4870 nM (active). Besides, the EC50 in experiment [9] was 349 nM (active); in experiment [10], 4140 nM (active); in experiment [12], 2540 nM (active); in the experiment with BJ [13], 4320 nM (inconclusive); in experiment [14], 17100 nM (inconclusive); in [18], 16800 nM (active). The figures for the EC50 in [21] and in experiment [22] were 25300 nM (active) and 27500 nM (active), respectively. The IC50 (in general, the point on the concentration scale where inhibition reaches its midpoint) was 504 nM (active) in [3]; 716 nM (active) in experiment [6]; 483 nM (active) in experiment [11]; > 100000 nM (inactive) in [15]; > 80000 nM (inactive) in experiment [20]; 1840 nM (active) at Nonstructural protein 1. The IC50 in “cells” was 44900 nM (active). Besides, the CC50 – broadly, the concentration giving 50% cytotoxicity – was 210 nM (active) in experiment [16], > 20000 nM (active) in experiment [17] and 1020 nM (active) in experiment [19]. Further, the AC50 – broadly, the concentration at which the activity in the assay is half-maximal – with HEK293 is 2110 nM (active); in experiment [23], 1350 nM (active); in the experiment on INS1, < 195 nM (active).
Turning to `COc1cccc2c1C(=O)c1c(O)c3c(c(O)c1C2=O)CC(O)(C(C)=O)CC3OC1CC(N(C)C)C(O)C(C)O1` (stereo not given), the AC50 was 807 nM (active) in experiment [23], > 52000 nM (inactive) at Keap1/Nrf2, 304 nM (active) at Protein S100-A4 and 1520 nM (active) on Paired box protein Pax-8. Moreover, the IC50 in [24] was 3820 nM (active).
With `CC(=O)Oc1cccc2c1C(=O)C1CC=CC(OC(C)=O)C1C2=O` (stereo not given), the values for the EC50 on Hexokinase HKDC1 and on Hexokinase-1 were 51600 nM (inactive) and 34100 nM (inactive), respectively. Also, the AC50 in experiment [25] was 10400 nM (active).

Values taken from ChEMBL document CHEMBL1201862, “PubChem BioAssay data set” (2004).
